One data set concerns Sindbis virus. In words: Antiviral activity against Sindbis virus. It counts as functional, organism-based.
The test system of data set [1] is Vesicular stomatitis virus. In words: Antiviral activity against Vesicular stomatitis virus. It is filed as functional, organism-based.
The subject of another data set is Human respirovirus 3. Nature of the data set: Antiviral activity against Parainfluenza-3 virus. It counts as functional, organism-based.
A further data set relates to Coxsackievirus B4. Nature of the data set: Antiviral activity against Coxsackievirus B4. It is filed as functional, organism-based.
The subject of another data set is Vaccinia virus. In words: Antiviral activity against Vaccinia virus. It is filed as functional, organism-based. Particulars: Orthopoxvirus vaccinia.
In data set [2] the test system is Respiratory syncytial virus. Nature of the data set: Antiviral activity against Respiratory syncytial virus. It is filed as functional, organism-based.
For the next data set, the system named is Human alphaherpesvirus 1. In words: Antiviral activity against Herpes simplex virus type 1. It is filed as functional, organism-based.
Data set [3] can be described thus: Cytotoxicity against MDCK cells assessed as minimum cytotoxic concentration after 72 hrs by MTS assay. It counts as cell-based, Canis lupus familiaris. Particulars: dog. (Tetrazolium dyes change colour on reduction, which living cells bring about.)
The subject of a further data set is Feline coronavirus. In words: Antiviral activity against Feline coronavirus. It counts as functional, organism-based.
In a further data set the test system is Human alphaherpesvirus 2. Nature of the data set: Antiviral activity against Herpes simplex virus type 2. It counts as functional, organism-based.
The subject of data set [4] is Mammalian orthoreovirus 1. In words: Antiviral activity against Reovirus-1. It counts as functional, organism-based.
In another data set the test system is MDCK. Nature of the data set: Cytotoxicity against MDCK cells after 72 hrs by MTS assay. Particulars: dog. It is filed as cell-based, Canis lupus familiaris.
Data set [5] deals with Influenza A virus (A/udorn/1972(H3N2)). It counts as cell membranes. Particulars: 100 uM.
In another data set the test system is Punta Toro virus. Nature of the data set: Antiviral activity against Punta Toro virus. It counts as functional, organism-based.
Data set [6] is described as follows: Cytotoxicity against MDCK cells assessed as minimum cytotoxic concentration after 24 hrs by MTS assay. It is filed as cell-based, Canis lupus familiaris. Particulars: dog.

The source made the active and inactive calls. The rule behind the calls is not given here.

For the molecule `CN1CC23CC4CC2(CC4C3)C1`, the result (in the data set with Sindbis virus; in [1]; in the data set on Human respirovirus 3; in the data set on Coxsackievirus B4; in the data set with Vaccinia virus; in [2]) was inactive. Further, the outcome (with Human alphaherpesvirus 1; in the data set with Feline coronavirus; in the data set on Human alphaherpesvirus 2; in data set [4]; in the data set with Punta Toro virus) was inactive. Moreover, the MCC at 72 h in [3] is no less than 100 µM. Also, the cytotoxic concentration (CC50) (commonly the concentration that lowers cell viability or growth by half) in the data set on MDCK is greater than 100 µM. The inhibition (as a rule, how much of the control response was suppressed) in data set [5] worked out at 88.3%.
For `N=C(N)N1CC23CC45CCCCC4(C2)CC3(C1)C5`, the outcome (in the data set with Sindbis virus; in data set [1]; with Human respirovirus 3; with Coxsackievirus B4; with Vaccinia virus; in [2]) was inactive. Moreover, the result (with Human alphaherpesvirus 1; with Feline coronavirus; with Human alphaherpesvirus 2; in data set [4]; in the data set with Punta Toro virus) was inactive. Moreover, the MCC at 72 h in data set [3] was determined as 4 µM. The CC50 in the data set on MDCK stood at 3.1 µM. Moreover, in data set [5], the inhibition came to 93.1%. The MCC at 24 h in data set [6] is no less than 10 µM.
Take `CCC12CC34CNCC3(C1)CC2(CC)C4`: the outcome (in the data set on Sindbis virus; in data set [1]; with Human respirovirus 3; in the data set with Coxsackievirus B4; in the data set on Vaccinia virus; in data set [2]) was inactive. The outcome (with Human alphaherpesvirus 1; in the data set on Feline coronavirus; with Human alphaherpesvirus 2; in [4]; in the data set with Punta Toro virus) was inactive. In [3], the MCC at 72 h was 20 µM. The same molecule returned a CC50 in the data set with MDCK of 49 µM. In data set [5], the inhibition is 65%.
In the case of `NCC12C3CCC4C3C3C(CCC31)C42`, the result (in the data set on Sindbis virus; in data set [1]; in the data set with Human respirovirus 3; with Coxsackievirus B4; in the data set on Vaccinia virus; in data set [2]) was inactive. Further, the outcome (in the data set with Human alphaherpesvirus 1; in the data set with Feline coronavirus; in the data set with Human alphaherpesvirus 2; in [4]; with Punta Toro virus) was inactive. The inhibition in [5] amounted to 12.8%.
`CCC12CC34CN(C(=N)N)CC3(C1)CC2(CC)C4`: the result (in the data set on Sindbis virus; in [1]; in the data set with Human respirovirus 3; in the data set with Coxsackievirus B4; with Vaccinia virus; in [2]) was inactive. For the same molecule, the outcome (in the data set on Human alphaherpesvirus 1; in the data set on Feline coronavirus; with Human alphaherpesvirus 2; in data set [4]; in the data set on Punta Toro virus) was inactive. For the same molecule, the MCC at 72 h in data set [3] amounted to 4 µM. The molecule further showed a CC50 in the data set on MDCK of 6.2 µM. The inhibition in data set [5] stood at 42.8%.
Consider `C1=CC2C3C4C5C=CC4C24CNCC54C13`, for which the result (with Sindbis virus; in [1]; in the data set on Human respirovirus 3; in the data set on Coxsackievirus B4; with Vaccinia virus; in [2]) was inactive. Also, the outcome (with Human alphaherpesvirus 1; in the data set with Feline coronavirus; with Human alphaherpesvirus 2; in data set [4]; with Punta Toro virus) was inactive.
On to `C1CCC23CC45CNCC4(CC2(C1)C5)C3`, for which the result (with Sindbis virus; in [1]; in the data set with Human respirovirus 3; with Coxsackievirus B4; in the data set with Vaccinia virus; in data set [2]) was inactive. Besides, the result (with Human alphaherpesvirus 1; in the data set with Feline coronavirus; in the data set with Human alphaherpesvirus 2; in data set [4]; in the data set on Punta Toro virus) was inactive. In addition, the MCC at 72 h in data set [3] is 4 µM. The molecule further yielded a cytotoxic concentration (CC50) in the data set on MDCK of 6.8 µM. In [5], this molecule displayed an inhibition of 85.3%. Further, the MCC at 24 h in data set [6] was greater than 50 µM.
For `NC12CC3CC(CC(C3)C1)C2` [AMANTADINE], the MCC at 72 h in data set [3] was greater than 500 µM. In the data set with MDCK, this molecule gave a CC50 greater than 500 µM. Also, the inhibition in [5] was 91%. In addition, the MCC at 24 h in [6] is no less than 500 µM.
For the molecule `C1C2C1C1C3C4C5C6CC6C4C14CNCC54C23` (stereo not drawn), the result (with Sindbis virus; in data set [1]; with Human respirovirus 3; in the data set on Coxsackievirus B4; in the data set with Vaccinia virus; in [2]) was inactive. The outcome (with Human alphaherpesvirus 1; in the data set on Feline coronavirus; in the data set on Human alphaherpesvirus 2; in [4]; in the data set with Punta Toro virus) was inactive. Moreover, the inhibition in [5] amounted to 86.5%.
Regarding `CN1CC23CC4(C)CC2(C1)CC4(C)C3`, the outcome (in the data set with Sindbis virus; in [1]; with Human respirovirus 3; with Coxsackievirus B4; in the data set on Vaccinia virus; in data set [2]) was inactive. Besides, the result (in the data set with Human alphaherpesvirus 1; with Feline coronavirus; in the data set with Human alphaherpesvirus 2; in data set [4]; with Punta Toro virus) was inactive. Further, the MCC at 72 h in data set [3] is no less than 20 µM. In the data set with MDCK, this molecule gave a CC50 of 49 µM. The molecule further returned an inhibition in [5] of 87.9%.
`CC12CC34CNCC3(C1)CC2(C)C4`: the result (with Sindbis virus; in data set [1]; with Human respirovirus 3; in the data set on Coxsackievirus B4; with Vaccinia virus; in [2]) was inactive. In addition, the outcome (with Human alphaherpesvirus 1; with Feline coronavirus; in the data set on Human alphaherpesvirus 2; in data set [4]; in the data set with Punta Toro virus) was inactive. The MCC at 72 h in data set [3] came out at 100 µM. In the data set with MDCK, this molecule displayed a CC50 of 59 µM. This molecule also yielded an inhibition in [5] of 93.8%.
Turning to `NC12C3CCC4C3C3C(CCC31)C42`, the result (in the data set on Sindbis virus; in [1]; with Human respirovirus 3; with Coxsackievirus B4; in the data set with Vaccinia virus; in [2]) was inactive. Besides, the result (in the data set with Human alphaherpesvirus 1; in the data set on Feline coronavirus; in the data set with Human alphaherpesvirus 2; in data set [4]; in the data set with Punta Toro virus) was inactive. In addition, the inhibition in data set [5] is 4.8%.
Consider `CC12CC3CC1(C)CC3(CN)C2`, for which the outcome (in the data set on Sindbis virus; in data set [1]; in the data set on Human respirovirus 3; with Coxsackievirus B4; in the data set with Vaccinia virus; in data set [2]) was inactive. The outcome (in the data set on Human alphaherpesvirus 1; in the data set with Feline coronavirus; in the data set on Human alphaherpesvirus 2; in data set [4]; in the data set with Punta Toro virus) was inactive. Moreover, the inhibition in data set [5] was determined as 97.3%.
Turning to `NC(=O)c1ncn([C@@H]2O[C@H](CO)[C@@H](O)[C@H]2O)n1` [RIBAVIRIN], the MCC at 24 h in [6] is greater than 100 µM.
As for `CC12CC3CC1(C)CC3(N)C2`, the result (with Sindbis virus; in data set [1]; in the data set on Human respirovirus 3; in the data set with Coxsackievirus B4; in the data set on Vaccinia virus; in data set [2]) was inactive. Also, the outcome (with Human alphaherpesvirus 1; in the data set with Feline coronavirus; in the data set on Human alphaherpesvirus 2; in [4]; in the data set with Punta Toro virus) was inactive. For the same molecule, the inhibition in data set [5] came to 93.6%.
Turning to `C1NCC23CC4CC12CC4C3`, the result (in the data set with Sindbis virus; in data set [1]; in the data set on Human respirovirus 3; in the data set on Coxsackievirus B4; in the data set on Vaccinia virus; in data set [2]) was inactive. Moreover, the outcome (in the data set on Human alphaherpesvirus 1; in the data set on Feline coronavirus; with Human alphaherpesvirus 2; in [4]; in the data set on Punta Toro virus) was inactive. Moreover, the MCC at 72 h in data set [3] was determined as 100 µM. Besides, the CC50 in the data set on MDCK was no less than 59 µM. In addition, the inhibition in [5] is 93.9%.
With `CC(N)C12CC3CC(CC(C3)C1)C2` (stereo not drawn) [RIMANTADINE], the MCC at 72 h in data set [3] came to 500 µM. Further, in the data set on MDCK, half-maximal cytotoxicity (CC50) was put at 203 µM. The MCC at 24 h in [6] was no less than 500 µM.

For the origin of these results see ChEMBL document CHEMBL3085678, “3-Azatetracyclo[5.2.1.1(5,8).0(1,5)]undecane derivatives: from wild-type inhibitors of the M2 ion channel of influenza A virus to derivatives with potent activity against the V27A mutant” (J Med Chem, 2013).
